Experiments:
Experiment in all cases: CTG-3D luminescence at 96 h relative to day-0 seeding control (ratio to day 0); higher = more growth / less cytotoxicity; PDxO 3D drug screen (set 2), 96 h, CTG-3D normalised to day-0 seeding control.
HCI-016 = test system: HCI-016 (organoid from a triple-negative breast cancer xenograft)
HCI-005.E2 = test system: HCI-005.E2 (organoid from a breast cancer xenograft with a HER2-positive history)
HCI-011.E2 = test system: HCI-011.E2 (organoid from an ER-positive breast cancer xenograft)
HCI-010 = test system: HCI-010 (organoid from a breast cancer xenograft)
HCI-017.E2 = test system: HCI-017.E2 (organoid from an ER-positive breast cancer xenograft)
HCI-012 = test system: HCI-012 (organoid from a breast cancer xenograft)

COc1cccc2c1C(=O)c1c(O)c3c(c(O)c1C2=O)C[C@@](O)(C(=O)CO)C[C@@H]3O[C@H]1C[C@H](N)[C@@H](O)[C@H](C)O1 [epirubicin]
CTG-3D luminescence at 96 h
Conditions	12.5 pM	0.00025 µM	0.005 µM	0.1 µM	1 µM	10 µM	100 µM	625 fM
HCI-010, days in culture: 79	1.82	1.96	2.1	0.453	0.114	0.0313	-0.00605	2.12
HCI-010, days in culture: 86	1.93	2.45	2.56	0.972	0.179	0.0423	-0.00278	2.25
HCI-010, days in culture: 102	1.1	1.22	1.01	0.19	0.064	0.0201	-0.000814	0.986
HCI-010, days in culture: 164	1.68	1.75	1.67	0.67	0.214	0.0976	-0.00123	1.45
HCI-011.E2, days in culture: 74	2.38	2.27	2.26	2.8	0.677	0.0499	-0.0143	2.23
HCI-012, days in culture: 214	2.15	2.5	1.28	0.214	0.0452	0.0186	-0.0053	5.03
HCI-012, days in culture: 243	1.9	2.59	1.74	0.228	0.0532	0.0739	-0.006	2.23
HCI-012, days in culture: 256	1.75	2.22	1.73	0.43	0.059	0.0309	-0.0077	2.4
HCI-012, days in culture: 284	1.9	2.3	1.39	0.413	0.0294	0.0662	-0.00241	3.07
HCI-016, days in culture: 305	2.91	3.05	3.17	1.79	0.0989	0.0325	-0.0142	3.33
HCI-016, days in culture: 327	0.93	0.767	0.985	1.49	0.0556	0.0566	-0.00792	1.16
HCI-016, days in culture: 341	2.05	1.72	2.11	0.986	0.0279	0.103	-0.00358	2.49
HCI-016, days in culture: 397	2	1.81	1.7	0.704	0.0199	0.108	-0.000737	3
HCI-017.E2, days in culture: 85	2.09	2.02	1.7	2.1	0.743	1.02	0.0107	1.92

CTG-3D luminescence at 96 h
Conditions	12.5 pM	0.00025 µM	0.005 µM	0.1 µM	1 µM	10 µM	100 µM	625 fM
HCI-005.E2	1.54	1.65	1.41	0.977	0.0317	0.00772	-0.000128	1.98
HCI-011.E2	1.49	1.68	1.53	1.6	0.861	0.0857	-0.000843	1.72
HCI-017.E2	2.04	2.99	2.22	2.13	0.562	1.07	0.00216	2.33

O=C(c1cc(Cc2n[nH]c(=O)c3ccccc23)ccc1F)N1CCN(C(=O)C2CC2)CC1 [olaparib]
CTG-3D luminescence at 96 h
Conditions	12.5 pM	0.00025 µM	0.005 µM	0.1 µM	1 µM	10 µM	100 µM	625 fM
HCI-010, days in culture: 79	2.04	1.79	2.08	2.11	1.98	1.43	0.445	2.19
HCI-010, days in culture: 86	2.3	2.5	2.59	2.35	2.34	1.68	0.309	2.43
HCI-010, days in culture: 102	1.21	1.27	1.15	1.36	1.26	0.657	0.0517	1.12
HCI-010, days in culture: 164	1.72	1.56	1.64	1.57	1.54	0.88	0.272	1.61
HCI-011.E2, days in culture: 74	2.53	2.44	2.19	2.22	1.57	0.94	0.157	2.66
HCI-012, days in culture: 214	2.61	3.14	2.09	1.89	1.68	0.943	0.704	2.64
HCI-012, days in culture: 243	1.73	2.04	1.86	2.25	1.49	1.74	1.2	2.06
HCI-012, days in culture: 256	2.25	1.86	2.13	3.12	2.12	1.26	1.08	2.1
HCI-012, days in culture: 284	1.75	1.95	1.42	2.17	1.42	1.42	0.15	3
HCI-016, days in culture: 305	2.92	2.24	2.09	3.71	1.96	1.22	0.878	3.99
HCI-016, days in culture: 327	1.25	0.765	1.45	1.31	1.34	1.59	1.23	1.74
HCI-016, days in culture: 341	1.92	1.78	2.18	2.46	1.62	1.79	0.982	2.44
HCI-016, days in culture: 397	1.5	2.56	1.17	1.75	2.07	1.74	0.249	2.79
HCI-017.E2, days in culture: 85	2.36	1.92	1.89	2.06	1.56	0.709	0.204	2.56

CTG-3D luminescence at 96 h
Conditions	12.5 pM	0.00025 µM	0.005 µM	0.1 µM	1 µM	10 µM	100 µM	625 fM
HCI-005.E2	1.62	2.3	2.07	2.39	2.1	1.27	0.485	2.24
HCI-011.E2	1.58	1.55	1.41	1.95	1.6	1.14	0.266	2.1
HCI-017.E2	2.27	2.61	2.34	2.76	2.06	1.12	0.259	2.59
